“Also recorded” adds a separate entry of the source.
Columns and labels:
Assay type in all cases: in vivo
[1] = test system: Wheat (cultivar; Apogee); assay: Wheat yield enhancement by foliar spray treatment under high temperature stress; conditions: for Average fresh weight of young ears: 36° C./32° C. for 7 days, 56th day after seeding, control 1.68
Procedure: Wheat (cultivar; Apogee) was sown in soil pots (5 seeds/pot) and then cultivated in a growth chamber at a temperature of 18° C. (day)/15° C. (night) and at a day length of 12 hours for 28 days. Plants were thinned to 3 plants/pot. On the 28th day after sowing, the plants were treated by foliar spray application with a solution containing the test compound. On the 2nd day after the spray application the plants were subjected to high temperatures for 7 days in a growth chamber 36° C. (day)/32° C. (night) and a day length of 12 hours. After the stress treatment, the plants were cultivated in a growth chamber at a temperature of 18° C. (day)/15° C. (night) and a day length of 12 hours. On the 56th day after seeding, the total fresh weight of the young ears from the 3 plants in each pot was measured (n=8 replicates).
Wheat seeds (cultivar; Apogee) were sown in soil pots (5 seeds/pot) and then cultivated in a growth chamber at a temperature of 18° C. (day)/15° C. (night) and at a day length of 12 hours for 28 days. The wheat plants on the 28th day after seeding were treated by foliar spray application with a solution containing the Compound 1 at concentrations of 1 ppm to 100 ppm. As an untreated control group, the plants were treated with blank solution without Compound 1. Three seedlings per pot were used for the test. On the 2nd day after the spray application, the plants were treated with high temperature for 7 days in a growth chamber at a temperature of 36° C. (day)/32° C. (night) and a day length of 12 hours. After the stress treatment, the plants were cultivated in a growth chamber at a temperature of 18° C. (day)/15° C. (night) and a day length of 12 hours. On the 56th day after seeding, total fresh weight of young seed heads from 3 plants in each pot were measured for 8 replicates of each treatment.

[2] = test system: Arabidopsis accession Columbia; assay: Arabidopsis petri plate (agar medium) assay, root growth; conditions: 6 days after sowing, control 3.3
Procedure: For Arabidopsis, a solid medium was required. Typically, half-strength MS salts were dissolved in water, and 1% (w/v) BactoAgar (DIFCO) was added. Following autoclaving, sterile S-Benzylthiouracil solutions were added to medium prior to pouring 30 mL of agar medium per petri plate. Arabidopsis seeds were sown in a sterile manner, and seeds were germinated and grew on the agar surface until primary root length was measured.
Of increased importance for understanding mode of action, Arabidopsis has become the model system of choice. In Table 20, the effect of Compound 1 in growth medium on root growth of Arabidopsis accession Columbia is shown.

[3] = test system: rice; assay: Rice pouch assay: growth of primary root and shoot; conditions: for Shoot Length: control 1.7
Procedure: Seeds were placed in germination pouches consisting of germination paper as an insert in a gas-permeable 16×14 cm plastic pouch (CYG Pouch; Mega International, St. Paul, Minn.). In pouch solution evaluation, S-Benzylthiouracil compounds or their salts were dissolved in a small volume of DMSO and added to sterile water with a maximum of 0.5% v/v DMSO at final dilution. The S-Benzylthiouracil solution was subsequently pipetted into the growth pouch, followed by the addition of seeds of the crop being tested. The pouches were arranged in a randomized complete block design in growth racks and placed in 19-liter polycarbonate food storage containers (Rubbermaid Commercial Products, Winchester, Va.). The sealed containers were held in an upright growth cabinet maintained at 25 C with a 12 hour light: 12 hour dark photoperiod. For rice, plants were harvested at 6 d, while in mungbean and corn, the plants were harvested at 4 d post sowing. Measurements were performed on the primary root and shoot of each seedling. The growth of the primary root of rice was examined in the pouch assay system. The results of the testing, presented as percent change in root length across all S-Benzylthiouracil compounds, are shown below.

[4] = test system: tomato; assay: Tomato petri plate assay; conditions: Solanum lycopersicum, 144 h; 10 ppm; after 6 days of continuous exposure; read-out: Percent Increase (percent change in primary tomato root length)
Procedure: For tomato, the plants were grown in disposable (150 mm) sterile plastic petri plates (Falcon, BD Biosciences, Franklin Lakes, N.J.). In the tomato assay, a single sheet of Whatman #1 filter paper was placed at the bottom of the plate, 15 tomato seeds were added, and 10 mL of treatment solution was added. At the end of 6 d, the 10 largest seedlings were selected for measurement from each plate. In each study, a minimum of 3 replicate plates were used. In tomato, several S-Benzylthiouracil compounds were tested to determine the effects on root growth.

[5] = test system: Rice (cultivar; Nipponbare); assay: Rice growth enhancement by hydroponic treatment under drought stress
Procedure: Germinated rice seeds (cultivar; Nipponbare) were cultivated in 2-fold diluted Kimura B hydroponic solution in a growth chamber at a temperature of 28° C. (day)/23° C. (night) and a day length of 12 hours for 14 days. Drought stress was provided by withdrawal of the hydroponic solution from the culture tube for 2 days in a growth chamber at a temperature of 28° C. (day)/23° C. (night) and a day length of 12 hours. After the drought treatment, plants were cultivated in 2-fold diluted Hoagland's hydroponic solution in a growth chamber at a temperature of 28° C. (day)/23° C. (night)) and a day length of 12 hours for 14 days. Then the total fresh weight of the shoots of 5 plants was measured for 3 replicates.
Germinated rice seeds (cultivar; Nipponbare) were cultivated in 2-fold diluted Kimura B hydroponic solution including 1 ppm of the Compound 1 and 0.01% dimethyl sulfoxide in a growth chamber at a temperature of 28° C. (day)/23° C. (night)) and a day length of 12 hours for 14 days. As an untreated control group, the plants were cultivated in the hydroponic solution without Compound 1.
Drought stress was provided by withdrawal of the hydroponic solution from the culture tube for 2 days in a growth chamber at a temperature of 28° C. (day)/23° C. (night) and a day length of 12 hours. After the drought treatment, the treated plants were cultivated in 2-fold diluted Hoagland's hydroponic solution in a growth chamber at a temperature of 28° C. (day)/23° C. (night) and a day length of 12 hours for 14 days, and then total fresh weight of the shoots of 5 plants was examined for 3 replicates.

Oc1ccnc(SCc2cccc(F)c2)n1 [Compound 1, S-(3-Fluorobenzyl)-2-thiouracil]
Average fresh weight of young seed heads versus untreated controls, in words ([1]; 1 ppm to 100 ppm foliar spray, high temperature stress): larger than those of the untreated controls
Average fresh weight of young ears ([1]; foliar spray 1 ppm): 1.71 grams/3 plants
Percent (untreated control = 100) ([1]; foliar spray 1 ppm, high temperature stress): 105%
Average fresh weight of young ears ([1]; foliar spray 10 ppm): 1.70 grams/3 plants
Percent (untreated control = 100) ([1]; foliar spray 10 ppm, high temperature stress): 104%
Average fresh weight of young ears ([1]; foliar spray 100 ppm): 1.87 grams/3 plants
Percent (untreated control = 100) ([1]; foliar spray 100 ppm, high temperature stress): 115%
Root Length ([2]; 0.1 ppm): 3.7 cm
Root Length ([2]; 0.25 ppm): 4.4 cm
Root Length ([2]; 0.5 ppm): 3.7 cm
Root Length ([2]; 1.0 ppm): 3.8 cm
Root Length ([3]; 10 mg/liter, 6 days after sowing, untreated control 9.67): 10.80 cm
Root Length ([3]; 30 mg/liter, 6 days after sowing, untreated control 9.67): 10.34 cm
Shoot Length ([3]; 7.5 ppm, 6 days after treatment): 2.2 cm
Root Length ([3]; 7.5 ppm, 6 days after treatment, control 5.1): 7.8 cm
Percent Change in Primary Root Length in Rice ([3]; 10 ppm (10 mg/L), benzyl ring substitutions, vs control): 19.8%
Percent Change (rice primary root growth) ([3]; 10 ppm, compounds and water-soluble salts, 6 days after sowing): 19.8%
Shoot Length ([3]; 30 ppm, 6 days after treatment): 2.2 cm
Root Length ([3]; 30 ppm, 6 days after treatment, control 5.1): 7.3 cm
Shoot Length ([3]; 100 ppm, 6 days after treatment): 1.9 cm
Root Length ([3]; 100 ppm, 6 days after treatment, control 5.1): 5.2 cm
change in vivo at 10 ppm ([3]; Oryza sativa, 144 h, 10 ppm (10 mg/L), benzyl ring substitutions, vs control, read-out: Percent Change in Primary Root Length in Rice): 19.8%
Effect on rice root growth, in words ([3]; rice pouch assay, compared to control): greatest increases in root length compared to all of the other tested compounds; also recorded: dose-dependent increase in root length
change in vivo at 10 ppm [4]: 8.3%
Percent (shoot weight, untreated control = 100) ([5]; 1 ppm in hydroponic solution, drought stress): 112%
Average weight of the shoots ([5]; 1 ppm in hydroponic solution, drought stress 2 days, control 0.43): 0.48 gram/5 plants
Average shoot weight versus untreated control, in words ([5]; 1 ppm, drought stress): larger than that of the untreated control

— patent US9510593B2, “S-benzylthiouracil compounds and methods of enhancing plant root growth” (Valent BioSciences Corporation, priority 2014, dated 2016)
